Laboratory results: patent US20170112861A1, “DRUG DELIVERY ENHANCER COMPRISING SUBSTANCE FOR ACTIVATING LYSOPHOSPHOLIPID RECEPTORS” (Osaka University, priority 2014, published 2017)

Legend:
Assay type in all cases: in vivo
[1] = test system: LLC cell tumors; assay: Delivery of FITC-labeled dextrans (70 kDa, 2000 kDa) to tumor tissues after LPA administration; details: LLC tumor-bearing mice, LPA 3 mg/kg i.p., dextran i.v. 24 hours later, tumors harvested after 30 minutes
Experimental: LLC cells were subcutaneously inoculated into C57BL/6 NCrSlc mice aged 8 weeks (females, SLC, Inc.) in the same manner as in Example 1. An LPA administration solution was prepared in the same manner as in Example 1. On day 11 post-inoculation of LLC cells, mice with a tumor volume of 100 to 120 mm^3 were selected. The mice were divided into four groups: control and LPA groups with administration of 70 kDa dextran, and control and LPA groups with administration of 2000 kDa dextran (n=3). LPA (3 mg/kg in 100 μL PBS) or PBS (100 μL) was administered intraperitoneally. At 24 hours after LPA or PBS administration, each type of dextran was administered to the tail vein of the mice under anesthesia with pentobarbital. The dextrans used (70 kDa and 2000 kDa) were FITC-labeled dextrans (Sigma). Each type of dextran was prepared as a solution by dissolving and diluting the FITC-labeled dextran in PBS to a concentration of […], and 100 μL of the solution was used for the administration. At 30 minutes after administration of each type of dextran, the tumors were harvested from the mice, and the tumor specimens were prepared in the same manner as in Example 4. The specimens were observed and photographed under a confocal laser microscope (Leica).

[2] = test system: lumen of tumor blood vessels of LLC cell tumors; assay: Structural changes in lumen of tumor blood vessels (scanning electron microscopy); details: LLC tumor-bearing mice, LPA 3 mg/kg i.p., 24 hours after administration
Experimental: LLC cells were subcutaneously inoculated into C57BL/6 NCrSlc mice aged 8 weeks (females, SLC, Inc.) in the same manner as in Example 1. An LPA administration solution was prepared in the same manner as in Example 1. Mice on day 9 post-inoculation of LLC cells (individuals with a tumor volume of 60 to 80 mm^3) were subjected to the experiment. The mice were divided into two groups: control group and LPA group (n=3). LPA (3 mg/kg in 100 μL PBS) or PBS (100 μL) was administered intraperitoneally. At 24 hours after LPA or PBS administration, mice were perfusion fixed under anesthesia with pentobarbital (Kyoritsu Seiyaku Corporation). The fixative used was 0.1 M phosphate buffer (pH 7.4) containing 2% formaldehyde and 2.5% glutaraldehyde. Tumors were then harvested and immersed in the same fixative as that used for perfusion and shaken at 4° C. overnight. The specimens were further immersed in 0.1 M phosphate buffer (pH 7.4) containing 1% osmium tetroxide and 0.5% potassium ferrocyanide. The specimens were dehydrated in an ascending series of ethanol, then the alcohol was replaced with t-butyl alcohol and the specimens were freeze-dried.

[3] = test system: LLC cells; assay: Combined administration of LPA and 5-FU, tumor growth in LLC cell tumor-bearing mice
Experimental: (§1) LLC cells were subcutaneously inoculated into C57BL/6 NCrSlc mice aged 8 weeks in the same manner as in Example 1. An LPA administration solution was prepared in the same manner as in Example 1. The anticancer drug used was 5-FU (Kyowa Hakko Kirin Co., Ltd.). The 5-FU was prepared as a solution in physiological saline (Otsuka Pharmaceutical Co., Ltd.). On day 7 post-inoculation of LLC cells, mice with a tumor volume of 30 to 50 mm^3 were selected and subjected to the test. The mice were divided into four groups: control group, 5-FU group, LPA group and 5-FU/LPA group (n=3). LPA (3 mg/kg in 100 μL PBS) or 5-FU (100 mg/kg in 100 μL PBS) or PBS (100 μL) was administered intraperitoneally. To 5-FU/LPA group, both LPA and 5-FU were administered intraperitoneally. LPA and PBS were administered once daily for consecutive seven days. 5-FU was administered twice in total, once a week for two weeks (on days 7 and 14 post-inoculation). The tumor size was measured over time after start of administration. The tumor volume was calculated by the formula: volume=length×width×height×0.5. Mice at 2 weeks after start of administration were photographed with a digital camera under anesthesia with pentobarbital. The tumors were harvested and photographed with a digital camera.

[4] = test system: B16-BL6 cells; assay: Lung metastasis from primary lesion in B16-BL6 cell tumor-bearing mice; details: B16-BL6 tumors, LPA 3 mg/kg i.p. once daily until day 21, counted on day 42, vs control, p<0.01
Experimental: B16-BL6 cells (1×10^6 cells in 100 μL PBS per animal) were subcutaneously injected into C57BL/6 NCrSlc mice aged 8 weeks (females, SLC, Inc.). On day 7 post-inoculation of B16-BL6 cells, mice with a tumor volume of 30 to 50 mm^3 were selected. The mice were divided into two groups: control group and LPA group (n=3). LPA (3 mg/kg in 100 μL PBS) or PBS (100 μL) was administered intraperitoneally. LPA or PBS was administered once daily until day 21 post-inoculation. On day 42 post-inoculation of B16-BL6 cells, mice were euthanized and the lung was harvested. The number of metastatic colonies in the harvested lung was counted under a stereoscopic microscope (Leica). For the statistical analysis, Student's t-test was performed.

[5] = test system: Mouse colon cancer colon 26 cells; assay: Combined administration of LPA and 5-FU, tumor growth in colon 26 cell tumor-bearing mice; details: colon 26 tumors in BALB/c mice; LPA 3 mg/kg i.p. once daily for seven days; 5-FU 100 mg/kg i.p. on days 7 and 14
Experimental: as §1
Mouse colon cancer colon 26 cells were used. […]

[6] = test system: Mouse melanoma B16-BL6 cells; assay: Combined administration of LPA and 5-FU, tumor growth in B16-BL6 cell tumor-bearing mice; details: B16-BL6 tumors; LPA 3 mg/kg i.p. once daily for seven days; 5-FU 100 mg/kg i.p. on days 7 and 14
Experimental: as §1
Mouse melanoma B16-BL6 cells were used. […]

For lysophosphatidic acid [LPA], the “delivery of 70 kDa FITC-labeled dextran to tumor” value [1] was “delivery of 70 kDa and 2000 kDa dextrans to tumors in the deep lobe was observed”, the “delivery of 2000 kDa FITC-labeled dextran to tumor” value [1] was “delivery of 70 kDa and 2000 kDa dextrans to tumors in the deep lobe was observed” and the “intraluminal surface of tumor blood vessels” value [2] was “the intraluminal surface of the blood vessels was very smooth”. For the same substance, the “tumor growth (tumor volume)” value ([3]; LLC tumors, LPA 3 mg/kg i.p. once daily for seven days, 5-FU 100 mg/kg i.p. on days 7 and 14) was “some inhibitory effects on tumor growth as compared with the control”, the “appearance of tumors (blood flow)” value ([3]; LPA alone 3 mg/kg i.p. once daily for seven days) was “the tumors appeared reddish, indicating an increase in the blood flow” and the “lung metastasis (number of lung metastatic colonies)” value [4] was “significantly inhibited”. For the same substance, the “tumor growth (tumor volume)” value [5] was “some inhibitory effects on tumor growth as compared with the control, up to day 17 post-inoculation” and the “tumor growth (tumor volume)” value [6] was “some inhibitory effects on tumor growth as compared with the control”.
